Data: patent publication US20250031699A1, “Method for Controlling Parasitic Plants” (AJINOMOTO CO., INC., priority 2022, published 2025)

System: Orobanche ramosa L.
Test: Germination inducer activity in Orobanche ramosa L. (germination rate of seeds)
Assay type: in vivo
Experimental: In this Example, the germination inducer activity of Compound 1 on Orobanche ramosa L. was analyzed by measuring the germination rate. Orobanche ramosa L. is a parasitic plant of tomato, which is now classified as Phelipanche ramosa (L.) Pomel. The Orobanche ramosa L. used herein is a species that parasitizes tomatoes native to Portugal. Dried seeds of Orobanche ramosa L. were conditioned for one week in water from 20° C. to 26° C. in a dark and humid place. The compounds to be tested were each added in an amount of 2 mL to a Petri dish so as to give a final concentration of 1 μM or 100 nM (Compound 1), or 0.34 μM (GR24). After incubation from 20° C. to 26° C. in a dark and humid place for 1 week after the addition of the treatment solution, the germination rate was evaluated by counting the number of germinated seeds under a stereomicroscope.
In the table, “Germination” indicates the germination inducer activity of Compound 1. When the relative value of the germination rate was 4% or more, Compound 1 was marked with (+).

## COC(=O)[C@H](CCCCNC(=O)OC1C=C(C)C(=O)O1)NC(=O)OC(C)(C)C (some centres unmarked) [Compound 1]
1 μM or 100 nM
  germination inducer activity for Orobanche ramosa L.: exhibited germination inducer activity
Compound 1 at 1 μM or 100 nM, 20° C. to 26° C., dark, 1 week
  Germination: + (When the relative value of the germination rate was 4% or more, Compound 1 was marked with (+))
